Source: publication PMC8315078, “Molecular imaging of fibroblast activation protein after myocardial infarction using the novel radiotracer [^68Ga]MHLL1” (Theranostics, 2021)

Experiments:
[1] = biological target: T1, fibroblast activation protein (human FAP, hFAP) (Homo sapiens, UniProt Q12884); assay: displacement of […]MHLL1 by cold compound in hFAP-transfected HT1080 cells (internalized activity); wild-type cells negative; type: cell-based
T1 sequence (Q12884 1-760): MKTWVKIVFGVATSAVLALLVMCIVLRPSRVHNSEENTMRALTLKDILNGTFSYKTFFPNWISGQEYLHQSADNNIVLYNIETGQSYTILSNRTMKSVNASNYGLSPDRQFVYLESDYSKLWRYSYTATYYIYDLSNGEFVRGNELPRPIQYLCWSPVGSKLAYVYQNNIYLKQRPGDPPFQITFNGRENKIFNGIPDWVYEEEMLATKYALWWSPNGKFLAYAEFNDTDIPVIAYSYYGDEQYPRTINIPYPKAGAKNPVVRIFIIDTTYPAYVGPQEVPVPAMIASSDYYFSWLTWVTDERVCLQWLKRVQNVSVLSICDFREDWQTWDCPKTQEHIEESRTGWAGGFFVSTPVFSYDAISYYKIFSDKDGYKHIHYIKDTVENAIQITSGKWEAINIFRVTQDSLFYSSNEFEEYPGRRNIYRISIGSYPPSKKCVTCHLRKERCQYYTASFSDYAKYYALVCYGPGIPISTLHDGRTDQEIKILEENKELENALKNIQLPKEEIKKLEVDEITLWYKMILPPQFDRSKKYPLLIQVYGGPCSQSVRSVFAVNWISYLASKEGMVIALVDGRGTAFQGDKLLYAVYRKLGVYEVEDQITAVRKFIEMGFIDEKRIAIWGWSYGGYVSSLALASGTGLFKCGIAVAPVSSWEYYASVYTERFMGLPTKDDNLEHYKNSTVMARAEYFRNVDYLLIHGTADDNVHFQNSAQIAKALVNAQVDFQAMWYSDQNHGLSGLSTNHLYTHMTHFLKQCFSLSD

[2] = biological target: fibroblast activation protein (murine FAP, mFAP) (Mus musculus, UniProt P97321)
Sequence of fibroblast activation protein (murine FAP, mFAP) (P97321 whole entry): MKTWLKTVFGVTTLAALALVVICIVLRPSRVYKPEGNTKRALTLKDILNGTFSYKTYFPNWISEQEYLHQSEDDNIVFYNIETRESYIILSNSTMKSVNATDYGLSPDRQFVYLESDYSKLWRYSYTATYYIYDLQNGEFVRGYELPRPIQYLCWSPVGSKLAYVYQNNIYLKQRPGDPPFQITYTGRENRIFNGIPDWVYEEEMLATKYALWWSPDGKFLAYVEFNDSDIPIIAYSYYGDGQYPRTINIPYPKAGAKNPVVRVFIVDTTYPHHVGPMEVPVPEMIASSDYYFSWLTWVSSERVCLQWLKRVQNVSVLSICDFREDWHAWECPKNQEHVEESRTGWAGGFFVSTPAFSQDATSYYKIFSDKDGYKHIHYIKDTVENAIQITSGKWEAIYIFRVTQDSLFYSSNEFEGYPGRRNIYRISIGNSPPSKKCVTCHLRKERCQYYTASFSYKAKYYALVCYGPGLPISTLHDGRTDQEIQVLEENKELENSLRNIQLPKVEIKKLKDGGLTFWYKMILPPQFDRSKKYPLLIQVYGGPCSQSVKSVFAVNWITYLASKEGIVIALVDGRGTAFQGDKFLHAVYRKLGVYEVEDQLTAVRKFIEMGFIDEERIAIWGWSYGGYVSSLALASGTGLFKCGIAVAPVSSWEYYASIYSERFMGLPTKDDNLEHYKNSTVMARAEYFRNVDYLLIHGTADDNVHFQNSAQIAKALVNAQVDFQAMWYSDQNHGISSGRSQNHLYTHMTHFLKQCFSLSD

N#C[C@@H]1CCCN1C(=O)CNC(=S)Nc1ccc(CNC(=O)CCC2C(=O)[O][Ga]3[O]C(=O)CN4CCN(CCN2CC4)CC(=O)[O]3)cc1 (stereo partly drawn) [[^natGa]MHLL1, [^68Ga]Ga-2,2'-(7-(1-carboxy-4-((4-(3-(2-((S)-2-cyano-pyrrolidin-1-yl)-2-oxoethyl)thioureido)benzyl)amino)-4-oxobutyl)-1,4,7-triazonane-1,4-diyl)diacetic acid]
IC50 [1]: 212 nM
IC50 [2]: 142 nM
